Experimental data published in patent US9597326B2 (priority 2010, dated 2017).

Tests used:
[1] = molecular target: human TLR7 (Homo sapiens (Human), UniProt Q9NYK1); type: cell-based; conditions: HEK293 reporter; relative to resiquimod set to 100%
[2] = system: cytokines (IFN-γ, IL-10, IL-12 p40, IL-1β, IL-5, IL-6, MCP-1, KC, TNF-α); type: in vivo, mice; conditions: IP; peak concentration over 24 h; FIG. 6

Chain of human TLR7 (Q9NYK1 27-1049 limits assumed): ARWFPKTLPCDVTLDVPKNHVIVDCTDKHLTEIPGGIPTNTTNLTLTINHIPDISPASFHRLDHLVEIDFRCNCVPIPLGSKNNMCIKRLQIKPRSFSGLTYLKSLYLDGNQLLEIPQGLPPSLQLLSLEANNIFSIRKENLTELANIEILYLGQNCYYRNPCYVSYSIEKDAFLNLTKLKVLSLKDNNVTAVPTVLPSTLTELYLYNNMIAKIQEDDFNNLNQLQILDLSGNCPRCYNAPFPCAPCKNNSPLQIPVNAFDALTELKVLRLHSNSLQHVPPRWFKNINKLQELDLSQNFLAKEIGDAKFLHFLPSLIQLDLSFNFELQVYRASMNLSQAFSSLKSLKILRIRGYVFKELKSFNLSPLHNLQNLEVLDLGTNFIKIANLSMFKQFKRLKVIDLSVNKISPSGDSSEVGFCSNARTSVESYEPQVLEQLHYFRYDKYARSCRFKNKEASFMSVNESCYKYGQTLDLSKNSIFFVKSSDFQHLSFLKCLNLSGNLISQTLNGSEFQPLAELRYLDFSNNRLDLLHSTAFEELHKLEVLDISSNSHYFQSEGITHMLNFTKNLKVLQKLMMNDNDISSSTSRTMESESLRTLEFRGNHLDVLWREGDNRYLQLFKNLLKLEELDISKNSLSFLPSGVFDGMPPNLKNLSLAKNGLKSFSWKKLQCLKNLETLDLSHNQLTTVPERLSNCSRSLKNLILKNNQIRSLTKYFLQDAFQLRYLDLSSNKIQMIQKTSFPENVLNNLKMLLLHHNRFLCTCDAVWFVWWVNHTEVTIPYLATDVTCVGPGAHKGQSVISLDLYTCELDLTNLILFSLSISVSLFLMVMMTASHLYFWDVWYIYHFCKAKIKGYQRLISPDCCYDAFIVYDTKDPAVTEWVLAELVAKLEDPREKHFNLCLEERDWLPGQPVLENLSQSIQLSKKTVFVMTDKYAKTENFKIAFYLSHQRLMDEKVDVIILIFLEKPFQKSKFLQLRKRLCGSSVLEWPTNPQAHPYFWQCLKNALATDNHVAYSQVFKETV

## COc1ccc(CCc2cnc3c(N)nc4cc(C(C)(P(=O)(O)O)P(=O)(O)O)ccc4c3c2)c(C)c1 [Compound 19]
[1]
  EC50: 23800 nM

## CCOCc1nc2c(N)nc3ccccc3c2n1CC(C)(C)O [R-848, resiquimod, reference compound]
[2]
  cytokine induction of IL-5 compared to peanut oil-control: Neither administration of SMIP 28 nor R-848, compared to peanut oil-control, resulted in a cytokine induction of IL-5
  cytokines induced compared to peanut oil-control: cytokine induction of IFN-γ, IL-10, IL-12 p40, IL-6, MCP-1, mKC, and TNF-α

## COc1ccc(CCc2cnc3c(N)nc4cc(C)ccc4c3c2)c(C)c1 [SMIP 28, 2-(4-methoxy-2-methylphenethyl)-8-methylbenzo[f][1,7]naphthyridin-5-amine]
[2]
  cytokine induction of IL-1β compared to R-848: significantly greater cytokine induction of IL-1β
  cytokine induction of IL-5 compared to peanut oil-control: Neither administration of SMIP 28 nor R-848, compared to peanut oil-control, resulted in a cytokine induction of IL-5
  cytokines induced compared to peanut oil-control: cytokine induction of IFN-γ, IL-12 p40, IL-1β, IL-6, MCP-1, mKC, and TNF-α
